Test results from US20250098679A1, “HERBICIDAL PYRIDONE DERIVATIVES” (SYNGENTA CROP PROTECTION AG, priority 2021, published 2025).

Legend:
Type in all cases: in vivo
Details in all cases: evaluated after 13 days
Setaria faberi (SETFA) [1] = assay: Pre-emergence Test, Setaria faberi (SETFA)
[2] = test system: Echinochloa crus-galli (ECHCG); assay: Pre-emergence Test, Echinochloa crus-galli (ECHCG)
Zea mays (ZEAMX) [3] = assay: Pre-emergence Test, Zea mays (ZEAMX)
[4] = test system: Ipomoea hederacea (IPOHE); assay: Pre-emergence Test, Ipomoea hederacea (IPOHE)
[5] = test system: Amaranthus palmeri (AMAPA); assay: Pre-emergence Test, Amaranthus palmeri (AMAPA)
[6] = test system: Amaranthus retoflexus (AMARE); assay: Pre-emergence Test, Amaranthus retoflexus (AMARE)
Setaria faberi (SETFA) [7] = assay: Post-emergence Test, Setaria faberi (SETFA); design: key to percentage damage caused to the plant, SETFA (five-point scale): 5=81-100%, 4=61-80%, 3=41-60%, 2=21-40%, 1=0-20% damage
Procedure, shortened: (§1)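 Scores are percentage plant damage on a 1–5 scale (1=0-20%, 2=21-40%, 3=41-60%, 4=61-80%, 5=81-100%), read 13 days after treatment. Pots received a spray at 1000 g/ha unless otherwise stated, formulated in acetone/water (50:50) containing 0.5% Tween 20.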

[8] = test system: Echinochloa crus-galli (ECHCG); assay: Post-emergence Test, Echinochloa crus-galli (ECHCG); design: key to percentage damage caused to the plant, ECHCG (five-point scale): 5=81-100%, 4=61-80%, 3=41-60%, 2=21-40%, 1=0-20% damage
Procedure, shortened: as §1

Zea mays (ZEAMX) [9] = assay: Post-emergence Test, Zea mays (ZEAMX); design: key to percentage damage caused to the plant, ZEAMX (five-point scale): 5=81-100%, 4=61-80%, 3=41-60%, 2=21-40%, 1=0-20% damage
Procedure, shortened: as §1

[10] = test system: Ipomoea hederacea (IPOHE); assay: Post-emergence Test, Ipomoea hederacea (IPOHE); design: key to percentage damage caused to the plant, IPOHE (five-point scale): 5=81-100%, 4=61-80%, 3=41-60%, 2=21-40%, 1=0-20% damage
Procedure, shortened: as §1

[11] = test system: Amaranthus palmeri (AMAPA); assay: Post-emergence Test, Amaranthus palmeri (AMAPA); design: key: 5=81-100%, 4=61-80%, 3=41-60%, 2=21-40%, 1=0-20% damage
Procedure, shortened: as §1

[12] = test system: Amaranthus retoflexus (AMARE); assay: Post-emergence Test, Amaranthus retoflexus (AMARE); design: key to percentage damage caused to the plant, AMARE (five-point scale): 5=81-100%, 4=61-80%, 3=41-60%, 2=21-40%, 1=0-20% damage
Procedure, shortened: as §1

Compound | Pre-emergence Test SETFA, percentage damage caused to the plant (five-point scale) (Setaria faberi (SETFA) [1]; 1000 g/ha) | Pre-emergence Test ECHCG, percentage damage caused to the plant (five-point scale) ([2]; 1000 g/ha) | Pre-emergence Test ZEAMX, percentage damage caused to the plant (five-point scale) (Zea mays (ZEAMX) [3]; 1000 g/ha) | Pre-emergence Test IPOHE, percentage damage caused to the plant (five-point scale) ([4]; 1000 g/ha) | Pre-emergence Test AMAPA, percentage damage caused to the plant (five-point scale) ([5]; 1000 g/ha) | Pre-emergence Test AMARE, percentage damage caused to the plant (five-point scale) ([6]; 1000 g/ha) | percentage damage caused to the plant, SETFA (five-point scale) (Setaria faberi (SETFA) [7]; 1000 g/ha) | percentage damage caused to the plant, ECHCG (five-point scale) ([8]; 1000 g/ha) | percentage damage caused to the plant, ZEAMX (five-point scale) (Zea mays (ZEAMX) [9]; 1000 g/ha) | percentage damage caused to the plant, IPOHE (five-point scale) ([10]; 1000 g/ha) | percentage damage caused to the plant, AMAPA (five-point scale) ([11]; 1000 g/ha) | percentage damage caused to the plant, AMARE (five-point scale) ([12]; 1000 g/ha) | Pre-emergence Test SETFA, percentage damage caused to the plant (five-point scale) (Setaria faberi (SETFA) [1]; 250 g/Ha (*)) | Pre-emergence Test ECHCG, percentage damage caused to the plant (five-point scale) ([2]; 250 g/Ha (*)) | percentage damage caused to the plant, SETFA (five-point scale) (Setaria faberi (SETFA) [7]; 250 g/Ha) | percentage damage caused to the plant, ECHCG (five-point scale) ([8]; 250 g/Ha) | percentage damage caused to the plant, ZEAMX (five-point scale) (Zea mays (ZEAMX) [9]; 250 g/Ha) | percentage damage caused to the plant, IPOHE (five-point scale) ([10]; 250 g/Ha) | percentage damage caused to the plant, AMAPA (five-point scale) ([11]; 250 g/Ha) | percentage damage caused to the plant, AMARE (five-point scale) ([12]; 250 g/Ha) | other results
CCn1c(Cn2cc(C(F)(F)F)nc2C)cc(=O)c(C(=O)O)c1-c1ccc(Cl)c(Cl)c1 [Compound 103, 2-(3,4-dichlorophenyl)-1-ethyl-6-[[2-methyl-4-(trifluoromethyl)imidazol-1-yl]methyl]-4-oxo-pyridine-3-carboxylic acid] | 1 (1=0-20%) | 1 (1=0-20%) | 0 | 0 | 2 (2=21-40%) | 1 (1=0-20%) | 1 (1=0-20%) | 1 (1=0-20%) | 1 (1=0-20%) | 0 | 1 (1=0-20%) | 1 (1=0-20%) | – | – | – | – | – | – | – | – | –
CCn1c(Cn2nc(C)cc2OC(F)F)cc(=O)c(C(=O)O)c1-c1ccc(Cl)c(Cl)c1 [Compound 150, 2-(3,4-dichlorophenyl)-6-[[5-(difluoromethoxy)-3-methyl-pyrazol-1-yl]methyl]-1-ethyl-4-oxo-pyridine-3-carboxylic acid] | 5 (5=81-100%) | 5 (5=81-100%) | 3 (3=41-60%) | 4 (4=61-80%) | 2 (2=21-40%) | 1 (1=0-20%) | 4 (4=61-80%) | 4 (4=61-80%) | 3 (3=41-60%) | 2 (2=21-40%) | 1 (1=0-20%) | 2 (2=21-40%) | 5 (5=81-100%) | 4 (4=61-80%) | 4 (4=61-80%) | 2 (2=21-40%) | 1 (1=0-20%) | 4 (4=61-80%) | 0 | 0 | Pre-emergence Test ZEAMX, percentage damage caused to the plant (five-point scale) (Zea mays (ZEAMX) [3]; 250 g/Ha (*)): 1 (1=0-20%); Pre-emergence Test IPOHE, percentage damage caused to the plant (five-point scale) ([4]; 250 g/Ha (*)): 1 (1=0-20%); Pre-emergence Test AMAPA, percentage damage caused to the plant (five-point scale) ([5]; 250 g/Ha (*)): 1 (1=0-20%); Pre-emergence Test AMARE, percentage damage caused to the plant (five-point scale) ([6]; 250 g/Ha (*)): 0
CCn1c(Cn2ncc3cc(Cl)ccc32)cc(=O)c(C(=O)O)c1-c1ccc(Cl)c(Cl)c1 [Compound 98, 6-[(5-chloroindazol-1-yl)methyl]-2-(3,4-dichlorophenyl)-1-ethyl-4-oxo-pyridine-3-carboxylic acid] | – | – | – | – | – | – | – | – | – | – | – | – | 0 | 0 | 1 (1=0-20%) | 2 (2=21-40%) | 1 (1=0-20%) | 1 (1=0-20%) | 0 | 1 (1=0-20%) | Pre-emergence Test ZEAMX, percentage damage caused to the plant (five-point scale) (Zea mays (ZEAMX) [3]; 250 g/Ha (*)): 0; Pre-emergence Test IPOHE, percentage damage caused to the plant (five-point scale) ([4]; 250 g/Ha (*)): 0; Pre-emergence Test AMAPA, percentage damage caused to the plant (five-point scale) ([5]; 250 g/Ha (*)): 1 (1=0-20%); Pre-emergence Test AMARE, percentage damage caused to the plant (five-point scale) ([6]; 250 g/Ha (*)): 0
CCn1c(Cn2nc(C(F)(F)F)cc2O)cc(=O)c(C(=O)O)c1-c1ccc(Cl)c(Cl)c1 [Compound 147, 2-(3,4-dichlorophenyl)-1-ethyl-6-[[5-hydroxy-3-(trifluoromethyl)pyrazol-1-yl]methyl]-4-oxo-pyridine-3-carboxylic acid] | 1 (1=0-20%) | 0 | 0 | 0 | 1 (1=0-20%) | 0 | 0 | 0 | 0 | 1 (1=0-20%) | 0 | 1 (1=0-20%) | – | – | – | – | – | – | – | – | –
COCCn1c(Cn2ccc(C(F)(F)F)n2)cc(=O)c(C(=O)O)c1-c1ccc(Cl)c(Cl)c1 [Compound 170, 2-(3,4-dichlorophenyl)-1-(2-methoxyethyl)-4-oxo-6-[[3-(trifluoromethyl)pyrazol-1-yl]methyl]pyridine-3-carboxylic acid] | 4 (4=61-80%) | 3 (3=41-60%) | 0 | 2 (2=21-40%) | 0 | 0 | 4 (4=61-80%) | 4 (4=61-80%) | 1 (1=0-20%) | 3 (3=41-60%) | 1 (1=0-20%) | 1 (1=0-20%) | – | – | 3 (3=41-60%) | 3 (3=41-60%) | 0 | 3 (3=41-60%) | 0 | 0 | –
CCn1c(Cn2nc(C(F)(F)F)cc2C(F)(F)F)cc(=O)c(C(=O)O)c1-c1ccc(Cl)c(Cl)c1 [Compound 135, 6-[[3,5-bis(trifluoromethyl)pyrazol-1-yl]methyl]-2-(3,4-dichlorophenyl)-1-ethyl-4-oxo-pyridine-3-carboxylic acid] | 0 | 1 (1=0-20%) | 1 (1=0-20%) | 2 (2=21-40%) | 0 | 1 (1=0-20%) | 4 (4=61-80%) | – | 2 (2=21-40%) | 3 (3=41-60%) | 1 (1=0-20%) | 2 (2=21-40%) | – | – | – | 1 (1=0-20%) | 1 (1=0-20%) | 2 (2=21-40%) | 1 (1=0-20%) | 1 (1=0-20%) | –
